This passage reports T/C results from PubChem BioAssay AID330 (DTP/NCI, 2004).

SMILES strings stand for the structures. Several values for one entry are separate records, joined by “and”; a condition that tells them apart may be missing. Equal entries are not always repeated. Inconclusive results and toxic doses are left out.

This assay has as its system P388 leukemia ip, CD2F1 mice, survival T/C. Put plainly: NCI In Vivo Anticancer Drug Screen. Data for tumor model P388 Leukemia (intraperitoneal) in CD2F1 (CDF1) mice. As to conditions: endpoint: median survival time, higher = longer survival. The gist of the method: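 Mice carrying the transplanted tumor received test compound or vehicle. Survival was recorded in each group, and the value is the treated-group measurement divided by that of the vehicle-treated control group.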

Where [1] appears, read: dose: 25.0 mg/kg/injection, schedule: Q01DX005 (ip), vehicle: saline.
[2] abbreviates: dose: 50.0 mg/kg/injection, schedule: Q01DX005 (ip), vehicle: saline.
The mark [3] stands for this setting: dose: 200.0 mg/kg/injection, schedule: Q01DX009 (ip), vehicle: saline.
Setting [4] is: dose: 100.0 mg/kg/injection, schedule: Q04DX003 (ip), vehicle: Klucel (hydroxypropylcellulose) (HPC).
[5] abbreviates: dose: 200.0 mg/kg/injection, schedule: Q04DX003 (ip), vehicle: Klucel (hydroxypropylcellulose) (HPC).
Setting [6] is: dose: 400.0 mg/kg/injection, schedule: Q04DX003 (ip), vehicle: Klucel (hydroxypropylcellulose) (HPC).

For `O=C(O)CCC(CS)C(=O)O` (stereo not drawn), the T/C is 100 % of control (dose: 0.5 mg/kg/injection, schedule: Q01DX005 (ip), vehicle: saline); 100 % of control (dose: 1.0 mg/kg/injection, schedule: Q01DX005 (ip), vehicle: saline); 100 % of control (dose: 2.0 mg/kg/injection, schedule: Q01DX005 (ip), vehicle: saline); 98 % of control (dose: 4.0 mg/kg/injection, schedule: Q01DX005 (ip), vehicle: saline); 98 % of control (dose: 8.0 mg/kg/injection, schedule: Q01DX005 (ip), vehicle: saline); 112 % of control (dose: 16.0 mg/kg/injection, schedule: Q01DX005 (ip), vehicle: saline). The T/C is, setting by setting: (dose: 32.0 mg/kg/injection, schedule: Q01DX005 (ip), vehicle: saline) 100 % of control; (dose: 64.0 mg/kg/injection, schedule: Q01DX005 (ip), vehicle: saline) 96 % of control; (dose: 128.0 mg/kg/injection, schedule: Q01DX005 (ip), vehicle: saline) 89 % of control.

With `CCc1ccc[n+](CCC2CNc3ccccc32)c1` (stereo not drawn), the T/C by setting is: (dose: 12.5 mg/kg/injection, schedule: Q01DX005 (ip), vehicle: saline) 98 % of control; under setting [1], 100 % of control; under setting [2], 100 % of control and 110 % of control.

As to `OC(Cc1cncc(CC(O)(C(F)(F)F)C(F)(F)F)n1)(C(F)(F)F)C(F)(F)F`, the T/C by setting is: (dose: 50.0 mg/kg/injection, schedule: Q01DX009 (ip), vehicle: saline) 99 % of control; (dose: 100.0 mg/kg/injection, schedule: Q01DX009 (ip), vehicle: saline) 98 % of control; under setting [3], 102 % of control.

As for `O=C1OC2C(O)COC2(N=Nc2ccc(Cl)cc2)/C1=N/Nc1ccccc1` (stereo not drawn), the T/C was 104 % of control (dose: 6.25 mg/kg/injection, schedule: Q01DX005 (ip), vehicle: saline with Tween-80); 93 % of control (dose: 12.5 mg/kg/injection, schedule: Q01DX005 (ip), vehicle: saline with Tween-80); 89 % of control (dose: 25.0 mg/kg/injection, schedule: Q01DX005 (ip), vehicle: saline with Tween-80); 90 % of control (dose: 200.0 mg/kg/injection, schedule: Q01DX005 (ip), vehicle: saline with Tween-80).

Consider `CCOC(=O)C(N)CSC(=O)NC` (stereo not drawn), for which the T/C runs as follows: (dose: 10.4 mg/kg/injection, schedule: Q03HX024 (ip), vehicle: saline) 118 % of control; (dose: 20.8 mg/kg/injection, schedule: Q03HX024 (ip), vehicle: saline) 124 % of control; under setting [1], 108 % of control; (dose: 27.7 mg/kg/injection, schedule: Q01DX009 (ip), vehicle: saline) 119 % of control; (dose: 27.7 mg/kg/injection, schedule: Q01DX009 (oral), vehicle: saline) 109 % of control; (dose: 31.2 mg/kg/injection, schedule: Q03HX008 (ip), vehicle: saline) 111 % of control. Also, the T/C reads like this: under setting [2], 112 % of control and 114 % of control (2×); (dose: 50.0 mg/kg/injection, schedule: Q01DX005 (iv), vehicle: saline) 101 % of control; (dose: 55.5 mg/kg/injection, schedule: Q01DX009 (oral), vehicle: saline) 111 % of control; (dose: 62.5 mg/kg/injection, schedule: Q03HX008 (ip), vehicle: saline) 120 % of control; (dose: 83.3 mg/kg/injection, schedule: Q03HX024 (ip), vehicle: saline) 162 % of control; (dose: 83.3 mg/kg/injection, schedule: Q04DX003 (ip), vehicle: saline) 113 % of control. Further, the T/C (dose: 100.0 mg/kg/injection, schedule: Q01DX005 (iv), vehicle: saline) was 106 % of control; the T/C (dose: 111.1 mg/kg/injection, schedule: Q01DX009 (oral), vehicle: saline) was 120 % of control; the T/C (dose: 133.0 mg/kg/injection, schedule: Q01DX009 (ip), vehicle: saline) is 152 % of control; the T/C (dose: 166.6 mg/kg/injection, schedule: Q03HX024 (ip), vehicle: saline) was 187 % of control; the T/C (dose: 166.6 mg/kg/injection, schedule: Q04DX003 (ip), vehicle: saline) was 120 % of control; the T/C (dose: 200.0 mg/kg/injection, schedule: Q01DX005 (iv), vehicle: saline) is 118 % of control. For the same compound, the T/C under setting [3] was 154 % of control; the T/C (dose: 222.2 mg/kg/injection, schedule: Q01DX009 (ip), vehicle: saline) was 156 % of control; the T/C (dose: 250.0 mg/kg/injection, schedule: Q01DX001 (ip), vehicle: saline) is 114 % of control; the T/C (dose: 250.0 mg/kg/injection, schedule: Q01DX001 (iv), vehicle: saline) was 92 % of control; the T/C (dose: 300.0 mg/kg/injection, schedule: Q01DX009 (ip), vehicle: saline) is 170 % of control; the T/C (dose: 444.4 mg/kg/injection, schedule: Q01DX009 (ip), vehicle: saline) was 169 % of control. The T/C was 155 % of control (dose: 444.4 mg/kg/injection, schedule: Q01DX009 (oral), vehicle: saline); 117 % of control (dose: 500.0 mg/kg/injection, schedule: Q01DX001 (ip), vehicle: saline); 102 % of control (dose: 500.0 mg/kg/injection, schedule: Q01DX001 (iv), vehicle: saline); 153 % of control (dose: 666.6 mg/kg/injection, schedule: Q04DX003 (ip), vehicle: saline); 195 % of control (dose: 888.8 mg/kg/injection, schedule: Q01DX009 (oral), vehicle: saline); 119 % of control (dose: 1000.0 mg/kg/injection, schedule: Q01DX001 (ip), vehicle: saline).

As for `CCCCOc1cccc2c1C(=O)c1c(O)c3c(c(O)c1C2=O)C[C@@](O)(C(C)=O)C[C@@H]3OC1CC(N)C(O)C(C)O1` (stereo partly drawn), the T/C reads like this: (dose: 3.13 mg/kg/injection, schedule: Q04DX003 (ip), vehicle: water) 117 % of control and 120 % of control; (dose: 6.25 mg/kg/injection, schedule: Q04DX003 (ip), vehicle: water) 113 % of control and 117 % of control; (dose: 12.5 mg/kg/injection, schedule: Q04DX003 (ip), vehicle: water) 115 % of control; (dose: 50.0 mg/kg/injection, schedule: Q04DX003 (ip), vehicle: water) 89 % of control and 90 % of control.

Consider `C=C(C)Cn1c(=O)n(CC)c(=O)c2[nH]c(Cl)nc21`, for which the T/C is, setting by setting: (dose: 16.0 mg/kg/injection, schedule: Q01DX009 (ip), vehicle: Klucel (hydroxypropylcellulose) (HPC)) 108 % of control; (dose: 32.0 mg/kg/injection, schedule: Q01DX009 (ip), vehicle: Klucel (hydroxypropylcellulose) (HPC)) 107 % of control; (dose: 50.0 mg/kg/injection, schedule: Q01DX009 (ip), vehicle: Klucel (hydroxypropylcellulose) (HPC)) 95 % of control; (dose: 64.0 mg/kg/injection, schedule: Q01DX009 (ip), vehicle: Klucel (hydroxypropylcellulose) (HPC)) 117 % of control; (dose: 100.0 mg/kg/injection, schedule: Q01DX009 (ip), vehicle: Klucel (hydroxypropylcellulose) (HPC)) 100 % of control; (dose: 200.0 mg/kg/injection, schedule: Q01DX009 (ip), vehicle: Klucel (hydroxypropylcellulose) (HPC)) 101 % of control.

Regarding `CCOC(=O)NC1CCc2ccccc2C1` (stereo not drawn), the T/C was 98 % of control under setting [4], 108 % of control under setting [5] and 95 % of control under setting [6].

For `CCCCCCCCCCCCCCCCN(O)C(=O)c1cnc[nH]1`, the T/C under setting [4] is 99 % of control, the T/C under setting [5] was 101 % of control and the T/C under setting [6] was 97 % of control.

Regarding `O=C1NC(=O)C2CC3C(CC12)C1C(=O)NC(=O)C31` (stereo not drawn), the T/C (dose: 50.0 mg/kg/injection, schedule: Q01DX005 (ip), vehicle: saline with Tween-80) was 104 % of control and the T/C (dose: 100.0 mg/kg/injection, schedule: Q01DX005 (ip), vehicle: saline with Tween-80) was 101 % of control.

Take `[NH-]NC(=S)[S-].[NH-]NC(=S)[S-].[Pt+4]`: the T/C is, setting by setting: (dose: 12.5 mg/kg/injection, schedule: Q04DX003 (ip), vehicle: Klucel (hydroxypropylcellulose) (HPC)) 103 % of control; (dose: 25.0 mg/kg/injection, schedule: Q04DX003 (ip), vehicle: Klucel (hydroxypropylcellulose) (HPC)) 100 % of control; (dose: 50.0 mg/kg/injection, schedule: Q04DX003 (ip), vehicle: Klucel (hydroxypropylcellulose) (HPC)) 109 % of control.

For the compound `O=C(OCc1ccccc1)C(Cc1c[nH]c2ccccc12)n1cnc2ccccc2c1=O` (stereo not drawn), the T/C is, setting by setting: (dose: 12.5 mg/kg/injection, schedule: Q01DX005 (ip), vehicle: Klucel (hydroxypropylcellulose) (HPC)) 97 % of control; (dose: 25.0 mg/kg/injection, schedule: Q01DX005 (ip), vehicle: Klucel (hydroxypropylcellulose) (HPC)) 97 % of control; (dose: 50.0 mg/kg/injection, schedule: Q01DX005 (ip), vehicle: Klucel (hydroxypropylcellulose) (HPC)) 96 % of control.
